Patent US9540691B2, “Assays and methods for selecting a treatment regimen for a subject with depression” (THE GENERAL HOSPITAL CORPORATION, priority 2011, dated 2017)
Like-named read-outs stand apart in the source and are kept apart here.

Test system: MDD patients carrying the indicated conditions
Conditions: Phase I, with SSRI
Protocol: Folate levels are classified as either low (<=2.5 ng/ml) or normal; and homocysteine levels as either normal or elevated (>=[…]). The presence or absence of at least one […] allele for the MTHFR gene are entered as a dichotomous variable (present or absent). […] Using folate as an example predicator, the presence or absence of a low serum-folate level along with treatment assignment can be entered in a 2×2, factorial ANOVA, using depression improvement scores (baseline minus endpoint HAM-D-17 scores) as the dependant variable. […] Similar analyses (i.e. separate 2×2 ANOVA's) can be performed substituting the presence of low folate levels for the presence of other predictors as described herein. Similarly, the effect of other predictors can be indicated by the interaction term representing the potential modulating influence of those variables.
Particularly, specific genetic and biomarkers that were assessed include the following: • (a) BMI calculation of at least about 30 kg/m^2; • (b) an expression ratio of SAM/SAH smaller than 2.8 (e.g., 2.71) as measured in a plasma sample; • (c) a level of 4-HNE no less than 3.28 μg/mL (as measured in a plasma sample); • (d) presence of rare variants CT or TT at position 677 of SEQ ID NO: 1 corresponding to a portion of a genomic nucleic acid sequence of methylenetetrahydrofolate reductase (MTHFR) (abbreviated as “MTHFR 677” below); • (e) presence of rare variants AG or GG at position 2756 of SEQ ID NO: 2 corresponding to a portion of genomic nucleic acid sequence of methionine synthase (MTR) (abbreviated as “MTR 2756” below); and • (f) presence of rare variants AG or GG at position 66 of SEQ ID NO: 3 corresponding to a portion of genomic nucleic acid sequence of methionine synthase reductase (MTRR) (abbreviated as “MTRR 66” below).
The efficacy effect is determined by measuring the mean change in the HAMD-17 score and HAMD-28 score by the end of Phase I and Phase II, as compared to the baseline.

CN1c2c(nc(N)[nH]c2=O)NC[C@@H]1CNc1ccc(C(=O)N[C@@H](CCC(=O)O)C(=O)O)cc1 [6(S)-5-MTHF, 6(S)-5-methyltetrahydrofolate]
Effect, change in HAMD-17 score (25 =< BMI < 30 kg/m^2 (18, 10)): 2.600
Effect, change in HAMD-28 score (25 =< BMI < 30 kg/m^2 (18, 10)): 2.602
Effect, change in HAMD-17 score (BMI < 25 (14, 7)): 1.576
Effect, change in HAMD-28 score (BMI < 25 (14, 7)): 0.909
Effect, change in HAMD-17 score (BMI < 30 kg/m^2 and HNE-His < median (19, 9)): 3.771
Effect, change in HAMD-28 score (BMI < 30 kg/m^2 and HNE-His < median): 4.606
Effect, change in HAMD-17 score (BMI < 30 kg/m^2 and SAM/SAH >= median (16,8)): 4.333
Effect, change in HAMD-28 score (BMI < 30 kg/m^2 and SAM/SAH >= median): 4.333
Effect, change in HAMD-17 score (BMI >= 30 kg/m^2 (40,21)): −6.414
Effect, change in HAMD-28 score (BMI >= 30 kg/m^2 (40,21)): −6.677
Effect, change in HAMD-17 score (BMI >= 30 kg/m^2 and HNE-His >= median (23, 11)): −6.569
Effect, change in HAMD-28 score (BMI >= 30 kg/m^2 and HNE-His >= median): −6.510
Effect, change in HAMD-17 score (BMI >= 30 kg/m^2 and SAM/SAH < median (21,9)): −5.611
Effect, change in HAMD-28 score (BMI >= 30 kg/m^2 and SAM/SAH < median = 2.71 (plasma sample)): −6.306
Effect, change in HAMD-17 score (MTHFR 677 CC and BMI < 30 kg/m^2 (17,8)): 4.500
Effect, change in HAMD-28 score (MTHFR 677 CC and BMI < 30 kg/m^2): 2.769
Effect, change in HAMD-17 score (MTHFR 677 CC and HNE-His < median (20,11)): −1.471
Effect, change in HAMD-28 score (MTHFR 677 CC and HNE-His < median = 3.28 (plasma sample)): −2.821
Effect, change in HAMD-17 score (MTHFR 677 CC and MTR 2756 AA (29,13)): −0.700
Effect, change in HAMD-28 score (MTHFR 677 CC and MTR 2756 AA): −0.192
Effect, change in HAMD-17 score (MTHFR 677 CT or TT and BMI >= 30 kg/m^2 (13,6)): −8.738
Effect, change in HAMD-28 score (MTHFR 677 CT or TT and BMI >= 30 kg/m^2): −9.857
Effect, change in HAMD-17 score (MTHFR 677 CT or TT and HNE-His >= median (11,6)): −7.143
Effect, change in HAMD-28 score (MTHFR 677 CT or TT and HNE-His >= median): −6.929
Effect, change in HAMD-17 score (MTHFR 677 CT or TT and MTR 2756 AG or GG (8,4)): −13.47
Effect, change in HAMD-28 score (MTHFR 677 CT or TT and MTR 2756 AG or GG): −18.00
Effect, change in HAMD-17 score (MTR 2756 AA (45,21)): −0.621
Effect, change in HAMD-17 score (MTR 2756 AA and BMI < 30 kg/m^2 (17,7)): 4.476
Effect, change in HAMD-28 score (MTR 2756 AA and BMI < 30 kg/m^2): 5.524
Effect, change in HAMD-17 score (MTR 2756 AA and HNE-His < median (26,13)): 0.306
Effect, change in HAMD-28 score (MTR 2756 AA and HNE-His < median): 0.639
Effect, change in HAMD-17 score (MTR 2756 AA and MTRR 66 AA (11,5)): 3.125
Effect, change in HAMD-17 score (MTR 2756 AA and MTRR 66 AA and HNE-His < median (6,4)): 3.000
Effect, change in HAMD-28 score (MTR 2756 AA and MTRR 66 AA and HNE-His < median = 3.28 (plasma sample)): 4.200
Effect, change in HAMD-17 score (MTR 2756 AA and MTRR 66 AA and SAM/SAH >= median (6,3)): −0.400
Effect, change in HAMD-28 score (MTR 2756 AA and MTRR 66 AA and SAM/SAH >= median): −1.000
Effect, change in HAMD-28 score (MTR 2756 AA and MTRR 66 AA): 5.000
Effect, change in HAMD-17 score (MTR 2756 AA and SAM/SAH >= median (24,12)): −1.556
Effect, change in HAMD-28 score (MTR 2756 AA and SAM/SAH >= median): −1.278
Effect, change in HAMD-28 score (MTR 2756 AA): 0.409
Effect, change in HAMD-17 score (MTR 2756 AG or GG and BMI >= 30 kg/m^2 (10,5)): −12.905
Effect, change in HAMD-28 score (MTR 2756 AG or GG and BMI >= 30 kg/m^2): −18.762
Effect, change in HAMD-17 score (MTR 2756 AG or GG and HNE-His >= median (13,7)): −7.125
Effect, change in HAMD-28 score (MTR 2756 AG or GG and HNE-His >= median = 3.28 (plasma sample)): −9.950
Effect, change in HAMD-17 score (MTR 2756 AG or GG and MTRR 66 AG or GG (15,7)): −6.900
Effect, change in HAMD-17 score (MTR 2756 AG or GG and MTRR 66 AG or GG and BMI >= 30 kg/m^2 (8,4)): −13.667
Effect, change in HAMD-28 score (MTR 2756 AG or GG and MTRR 66 AG or GG and BMI >= 30 kg/m^2): −18.833
Effect, change in HAMD-17 score (MTR 2756 AG or GG and MTRR 66 AG or GG and HNE-His >= median (10,4)): −7.200
Effect, change in HAMD-28 score (MTR 2756 AG or GG and MTRR 66 AG or GG and HNE-His >= median): −9.800
Effect, change in HAMD-17 score (MTR 2756 AG or GG and MTRR 66 AG or GG and SAM/SAH < median (8,3)): −9.000
Effect, change in HAMD-28 score (MTR 2756 AG or GG and MTRR 66 AG or GG and SAM/SAH < median = 2.71 (plasma sample)): −12.741
Effect, change in HAMD-28 score (MTR 2756 AG or GG and MTRR 66 AG or GG): −9.996
Effect, change in HAMD-17 score (MTR 2756 AG or GG and SAM/SAH < median (10,4)): −9.800
Effect, change in HAMD-28 score (MTR 2756 AG or GG and SAM/SAH < median = 2.71 (plasma sample)): −14.993
Effect, change in HAMD-17 score (MTR 2756 AG/GG (20,11)): −7.143
Effect, change in HAMD-28 score (MTR 2756 AG/GG): −10.926
